Where a name gives a salt, the structure may show the parent alone.
Biological target: MOR (Mus musculus, UniProt P42866)
Assay type: biochemical

Chain of MOR (P42866 whole entry): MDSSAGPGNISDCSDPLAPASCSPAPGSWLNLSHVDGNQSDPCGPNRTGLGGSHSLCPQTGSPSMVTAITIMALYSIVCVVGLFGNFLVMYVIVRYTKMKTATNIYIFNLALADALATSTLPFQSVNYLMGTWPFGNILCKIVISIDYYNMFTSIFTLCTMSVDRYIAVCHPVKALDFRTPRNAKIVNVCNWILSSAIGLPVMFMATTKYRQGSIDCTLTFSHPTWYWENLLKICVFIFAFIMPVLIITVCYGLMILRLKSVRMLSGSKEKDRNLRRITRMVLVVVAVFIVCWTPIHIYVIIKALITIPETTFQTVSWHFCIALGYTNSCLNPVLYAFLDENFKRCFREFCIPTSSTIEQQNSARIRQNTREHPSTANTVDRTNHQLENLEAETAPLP

Question: Which “Stimulation of 35S-GTPγS binding (in words)” value does the source give for `COc1ccsc1CNCC[C@@]1(c2ccccn2)CCOC2(CCCC2)C1` [oliceridine, Oliceridine hydrochloride] here?
Answer: no measurable stimulation

Reference: paper PMC10295947 (Biomolecules, 2023)
